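Compound exposure: 48 hours, 5 concentrations, 96-well plates. At the GI50, growth is halved.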 Activity calls are given as the source filed them. No stated cut-off is given here; in the data, active = GI50 up to about 1.1 µM and inactive = higher.

Some test systems named below: 786-0; COLO 205; OVCAR-4; SN12C; T47D; SF-295; EKVX; OVCAR-8; IGROV-1; HOP-62; A549; CCRF-CEM; Malme-3M; KM12; NCI/ADR-RES; NCI-H460; K562; UO-31; UACC-62.
Common to all, as to assay: NCI tumour cell line growth inhibition, 48 h

`COC(=O)c1c(O)ccc2c1c1c(n2Cc2ccc(Cl)cc2Cl)C(=O)c2ccccc2C1=O`: the GI50 was 10.1 µM (inactive) in the assay with 786-0; 11.2 µM (inactive) with COLO 205; 1.95 µM (inactive) in the assay on OVCAR-4; 2.21 µM (inactive) with SN12C; 1.97 µM (inactive) in the assay with T47D; 11.8 µM (inactive) in the assay on SF-295. For the same compound, the GI50 with EKVX was 10.4 µM (inactive); with OVCAR-8, 8.99 µM (inactive); in the assay with IGROV-1, 11.2 µM (inactive); in the assay with HOP-62, 9.18 µM (inactive); in the assay on A549, 5.62 µM (inactive); in the assay on CCRF-CEM it was 4.12 µM (inactive). Also, the GI50 in the assay on Malme-3M was 16 µM (inactive); in the assay with KM12, 3.41 µM (inactive); in the assay on NCI/ADR-RES it was 10.7 µM (inactive); in the assay on NCI-H460, 3.27 µM (inactive); in the assay with K562 it was 5.9 µM (inactive); in the assay with UO-31 it was 10.5 µM (inactive).
Take `Cc1c(-c2ccccc2)c(C#N)c2nnn(C3CCCCC3)c(=O)n12`: the GI50 in the assay with 786-0 was 24.5 µM (inactive); with COLO 205, 88.1 µM (inactive); in the assay on OVCAR-4 it was 40.6 µM (inactive); with SN12C, 98.2 µM (inactive); in the assay with T47D, > 100 µM (inactive); with SF-295 it was 29.5 µM (inactive). Further, the GI50 with EKVX was 37 µM (inactive); in the assay with OVCAR-8, 44 µM (inactive); in the assay on IGROV-1, 60.4 µM (inactive); with UACC-62, > 100 µM (inactive); with HOP-62, 14.7 µM (inactive); with A549, 83.4 µM (inactive). In addition, the GI50 with CCRF-CEM was > 100 µM (inactive); in the assay with Malme-3M, > 100 µM (inactive); in the assay with KM12 it was > 100 µM (inactive); in the assay on NCI/ADR-RES, > 100 µM (inactive); with NCI-H460, > 100 µM (inactive); in the assay on K562, 88.3 µM (inactive). Moreover, the GI50 in the assay with UO-31 is 0.74 µM (active).
Consider `C=CCNC(=O)NC1=CSC2=NC(=O)C3(NN12)c1ccccc1-c1ccccc13`, for which the GI50 in the assay on 786-0, with COLO 205, in the assay on OVCAR-4, in the assay with SN12C, in the assay on T47D and with SF-295 was > 10 µM (inactive) in each case. In addition, the GI50 with EKVX, with OVCAR-8, in the assay with IGROV-1, with UACC-62, in the assay with HOP-62 and in the assay on A549 was > 10 µM (inactive) in each case. In addition, the GI50 with CCRF-CEM, in the assay with Malme-3M, in the assay with KM12, with NCI/ADR-RES, in the assay on NCI-H460 and in the assay with K562 was > 10 µM (inactive) throughout. Besides, in the assay with UO-31, the GI50 was 8.24 µM (inactive).
For the compound `OCCOCCO[P+]1(OCCOCCO)n2c3ccc2C(c2ccccc2)=C2C=CC(=N2)C(c2ccccc2)=c2ccc(n21)=C(c1ccccc1)C1=NC(=C3c2ccccc2)C=C1`, the GI50 with 786-0 was 0.179 µM (active); in the assay with COLO 205 it was 0.0206 µM (active); in the assay on OVCAR-4, 0.209 µM (active); in the assay with SN12C, 0.11 µM (active); with T47D it was 0.04 µM (active); with SF-295 it was 0.281 µM (active). For the same compound, the GI50 in the assay with EKVX was 0.32 µM (active); in the assay with OVCAR-8, 0.174 µM (active); in the assay on IGROV-1 it was 0.0261 µM (active); in the assay on UACC-62, 0.0618 µM (active); in the assay on HOP-62 it was 0.379 µM (active); in the assay on A549, 0.113 µM (active). The GI50 in the assay on CCRF-CEM is 0.0231 µM (active); with Malme-3M, 0.119 µM (active); with KM12, 0.0331 µM (active); in the assay on NCI/ADR-RES, 7.14 µM (inactive); in the assay with NCI-H460, 0.076 µM (active); in the assay with K562 it was < 0.0188 µM (active). In the assay on UO-31, the GI50 was 1.86 µM (inactive).
Turning to `N#CC(c1cc2c(cc1Br)OCO2)N1CCOCC1` (centres undefined), the GI50 with 786-0 was 36.4 µM (inactive); in the assay on COLO 205 it was 64.9 µM (inactive); with OVCAR-4 it was > 100 µM (inactive); with SN12C it was 56.2 µM (inactive); in the assay with T47D, > 100 µM (inactive); in the assay with SF-295 it was 53 µM (inactive). The GI50 is 44.3 µM (inactive) in the assay on EKVX; > 100 µM (inactive) in the assay with OVCAR-8; 58.1 µM (inactive) in the assay with IGROV-1; 21.1 µM (inactive) in the assay with UACC-62; 44 µM (inactive) in the assay with HOP-62; > 100 µM (inactive) in the assay on A549. Moreover, the GI50 in the assay with CCRF-CEM was 7.26 µM (inactive); in the assay on Malme-3M, 78.9 µM (inactive); in the assay on KM12 it was 67.6 µM (inactive); with NCI/ADR-RES, 27.1 µM (inactive); with NCI-H460, > 100 µM (inactive); in the assay on K562, 3.32 µM (inactive). For the same compound, the GI50 with UO-31 was 71.4 µM (inactive).
Take `COc1cccc(C(=O)Nc2c3ccccc3nc3ccccc23)c1OC`: the GI50 was 52.2 µM (inactive) in the assay with 786-0; > 100 µM (inactive) in the assay with COLO 205; > 100 µM (inactive) in the assay on OVCAR-4; > 100 µM (inactive) in the assay on SN12C; > 100 µM (inactive) with T47D; 39.1 µM (inactive) with SF-295. The GI50 with EKVX was > 100 µM (inactive); in the assay on OVCAR-8, 88.9 µM (inactive); with IGROV-1 it was > 100 µM (inactive); in the assay on UACC-62, > 100 µM (inactive); with HOP-62, 45.7 µM (inactive); with A549 it was 84.9 µM (inactive). Further, the GI50 in the assay with CCRF-CEM was > 100 µM (inactive); in the assay on Malme-3M it was > 100 µM (inactive); with KM12 it was > 100 µM (inactive); in the assay on NCI/ADR-RES, > 100 µM (inactive); in the assay on NCI-H460 it was 76.2 µM (inactive); in the assay with K562, > 100 µM (inactive). The GI50 in the assay with UO-31 is 2.96 µM (inactive).
Turning to `O=C(O)C1CCCN1Cc1c[nH]c2ccccc12` (centres undefined), the GI50 with 786-0, in the assay on COLO 205, with OVCAR-4, with SN12C, with T47D and in the assay on SF-295 was > 100 µM (inactive) each time. Further, the GI50 with EKVX, in the assay on OVCAR-8, in the assay with IGROV-1, with UACC-62, in the assay on HOP-62 and with A549 was > 100 µM (inactive) throughout. Also, the GI50 in the assay with CCRF-CEM, with Malme-3M, in the assay with KM12, in the assay with NCI/ADR-RES, in the assay on NCI-H460 and in the assay with K562 was > 100 µM (inactive) each time. Further, the GI50 with UO-31 is > 100 µM (inactive).
On to `O=C(Oc1ccccc1)c1cc2cc(CCl)ccc2oc1=O`, for which the GI50 in the assay with 786-0 is 19.4 µM (inactive); in the assay with COLO 205, 17.8 µM (inactive); in the assay with OVCAR-4, 24.8 µM (inactive); in the assay on SN12C, 23.1 µM (inactive); with T47D, 15.6 µM (inactive); in the assay with SF-295, 32.6 µM (inactive). The GI50 with EKVX is 17.6 µM (inactive); in the assay on OVCAR-8 it was 47.2 µM (inactive); with IGROV-1, 23.3 µM (inactive); in the assay on UACC-62, 13.4 µM (inactive); with HOP-62, 26.5 µM (inactive); in the assay with A549 it was 25.8 µM (inactive). Moreover, the GI50 with CCRF-CEM is 24.3 µM (inactive); in the assay with Malme-3M it was 1.74 µM (inactive); in the assay on KM12 it was 63.4 µM (inactive); in the assay on NCI/ADR-RES, 30 µM (inactive); with NCI-H460, 20.3 µM (inactive); in the assay on K562 it was 5.61 µM (inactive). The GI50 in the assay on UO-31 is 20.4 µM (inactive).
Take `O=C(O)C1C(C(=O)O)C2C(=O)C=CC1N2Cc1ccccc1` (centres undefined): the GI50 is 2.49 µM (inactive) in the assay on 786-0; 6.98 µM (inactive) in the assay with COLO 205; 4.32 µM (inactive) in the assay with OVCAR-4; 1.84 µM (inactive) in the assay with SN12C; 3.46 µM (inactive) in the assay on T47D; 11.3 µM (inactive) with SF-295. Moreover, the GI50 in the assay on EKVX was 3.06 µM (inactive); in the assay on OVCAR-8 it was 4.16 µM (inactive); in the assay on IGROV-1, 6.5 µM (inactive); with UACC-62, 7.96 µM (inactive); in the assay on HOP-62 it was 2.59 µM (inactive); in the assay on A549, 6.71 µM (inactive). Besides, the GI50 with CCRF-CEM was 0.383 µM (active); in the assay on Malme-3M, 3.68 µM (inactive); in the assay with KM12, 3.61 µM (inactive); in the assay on NCI/ADR-RES, 2.3 µM (inactive); in the assay on NCI-H460, 1.98 µM (inactive); in the assay on K562, 6.67 µM (inactive). For the same compound, the GI50 in the assay with UO-31 was 1.71 µM (inactive).
Consider `COc1ccc(Br)c(/C=N\c2cccc3cc(OC)c(OC)cc23)c1`, for which the GI50 with 786-0 was 13.7 µM (inactive); in the assay with COLO 205, 79.3 µM (inactive); in the assay with OVCAR-4, 40.6 µM (inactive); in the assay with SN12C, 12.8 µM (inactive); in the assay with T47D, 58.5 µM (inactive); with SF-295 it was 12.8 µM (inactive). Further, the GI50 in the assay on EKVX is 97.1 µM (inactive); in the assay on OVCAR-8 it was 6.28 µM (inactive); in the assay with IGROV-1 it was 25.8 µM (inactive); in the assay on UACC-62, 10.3 µM (inactive); in the assay with HOP-62, 9.64 µM (inactive); in the assay on A549, > 91.2 µM (inactive). The GI50 with CCRF-CEM was 2.82 µM (inactive); with Malme-3M, 34 µM (inactive); with KM12, 21.1 µM (inactive); in the assay on NCI/ADR-RES, 16.8 µM (inactive); with NCI-H460, 35.5 µM (inactive); in the assay on K562 it was 3.52 µM (inactive). Moreover, the GI50 in the assay with UO-31 was 21.5 µM (inactive).

(Values after ChEMBL document CHEMBL1201862, “PubChem BioAssay data set” (2004).)
